This is an account of results in PubChem BioAssay (NCI).

Common to all, as to assay: DTP human tumour cell line panel, 48 h
Test [1] has as its system CAKI-1 renal.
The test system of test [2] is MALME-3M melanoma.
Test [3] has as its system MCF7 breast.
Test [4] has as its system MDA-MB-435.
Test [5] has as its system NCI-H460 lung.
The subject of test [6] is OVCAR-8 ovarian.
Test [7] concerns SNB-19 CNS.
In test [8] the test system is TK-10 renal.
In test [9] the test system is SR leukemia.
In test [10] the test system is UO-31 renal.

Structures are written as SMILES. Values joined by “and” are separate entries in the source; they are usually repeats but may differ in a detail not shown here. Equal entries are not always repeated.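 How tested: cells in 96-well plates exposed to compound for 48 hours at five concentrations. The concentration for 50% growth inhibition is given as GI50. At the TGI there is no net growth.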 A value given as a limit tells only on which side of the number the result lay.

As usually defined, the TGI is the concentration at which net growth stops. Low values mean more potent growth arrest, high ones less potent growth arrest. Regarding `OCC(O)C(O)C(O)C(O)/C=N/Nc1nc(O)c(/C=C2\C=Nc3ccccc32)[nH]1` (configuration not stated), the TGI in test [1], in test [2], in test [3], in [4], in test [5] and in test [6] was over 100 µM in each case. Further, the TGI in test [7] and in test [8] was over 100 µM in each case.

Take `COC(=O)C1C2CC3C(OC(=O)C31)C2OC(=O)[C@](OC)(c1ccccc1)C(F)(F)F` (some centres not stated): the TGI in test [1], in test [2], in test [5], in [6], in [7] and in [9] was over 100 µM throughout. Moreover, the TGI in [8] and in [10] was over 100 µM each time.

For `O=C1NC2(C=Cc3c(ccc4ccccc34)O2)Oc2ccccc21` (configuration not stated), the TGI in test [2] was over 100 µM; in test [5] it was over 100 µM; in [6], over 100 µM; in test [7], 79.1 µM; in test [9], 34.5 µM; in [8], over 100 µM. In addition, the TGI in test [10] was 9.41 µM.

Take `COc1ccccc1N=C1SCCN1C(=S)Nc1ccc(S(=O)(=O)/N=C/N(C)C)cc1`: the TGI is over 100 µM in test [1]; 83.7 µM in [3]; 76.9 µM in test [4]; over 100 µM in test [5]; over 100 µM in [6]; over 100 µM in test [7]. In addition, the TGI in test [8] and in test [10] was over 100 µM in each case.

In the case of `CCCCNC(=S)Nc1nc(C(=O)NNC(=O)c2ccccc2)cs1`, the TGI was 39 µM in test [1]; 38.8 µM in [2]; 47.8 µM in test [4]; 66.9 µM in test [6]; over 100 µM in [9]; 60.6 µM in test [8]. In test [10], the TGI is 28.5 µM.

Turning to `O=C(NN=C1CCCCC1)NN=C1CCCCC1`, the TGI in [1], in test [2], in test [3], in test [4], in test [5] and in test [6] was over 100 µM throughout. The TGI in [7], in test [8] and in test [10] was over 100 µM each time.

`c1ccc(C2[C@@H]3CCCc4ccccc4C3=NN2c2ccccc2)cc1` (some centres not stated): the TGI in test [2], in test [5], in test [6], in [7], in test [9] and in test [8] was over 100 µM each time. The same compound registered a TGI in test [10] of over 100 µM.

For the compound `CC1=CC(=O)/C(=C/n2c(=S)[nH]c3ccccc32)C(=O)O1`, the TGI in test [1], in test [3], in test [4], in test [5], in test [6] and in test [7] was over 100 µM in each case. In addition, the TGI in test [8] and in test [10] was over 100 µM each time.

Turning to `OC(c1ccccc1)(c1cccnc1)C(O)(c1ccccc1)c1cccnc1` (configuration not stated), the TGI in test [1], in test [2], in test [3], in test [4], in test [5] and in [6] was over 100 µM throughout. The TGI in [7], in [8] and in [10] was over 100 µM throughout.

For `CC(=O)CC(=O)/C=C/c1cccs1`, the TGI in test [1], in test [2], in test [5], in test [6], in test [7] and in [9] was over 100 µM throughout. The TGI in test [8] and in test [10] was over 100 µM each time.

In the case of `Cc1cc(C)c(N=Nc2c(O)c(S(=O)(=O)O)cc3cc(S(=O)(=O)O)ccc23)cc1C`, the TGI in test [1], in test [2], in test [4], in [6], in test [7] and in test [8] was over 100 µM throughout. This compound also gave a TGI in [10] of over 100 µM.

Turning to `CC(=O)n1ccc2c(Cl)ncnc21`, the TGI in test [1], in test [5], in [6], in test [7], in [9] and in [8] was over 100 µM throughout. In test [10], this compound gave a TGI of over 100 µM.

Turning to `c1ccc(CCn2cncn2)cc1`, the concentration for total growth inhibition (TGI) in test [2], in [5], in test [7], in test [9], in test [8] and in test [10] was over 100 µM throughout.

`Brc1cccc[n+]1-c1ccc2cc(-[n+]3ccccc3Br)ccc2c1`: the concentration for total growth inhibition (TGI) was over 100 µM in test [1]; 72.7 µM in [2]; over 100 µM in [3]; over 100 µM in test [4]; over 100 µM in test [5]; over 100 µM in [6]. Also, the TGI is over 100 µM in [7], 37.6 µM in test [8] and 38.5 µM in [10].

`C/C=C1\CC(C(=O)OCC)CCCCCCCCCCC1=O` (configuration not stated): the TGI is over 100 µM in [1]; over 100 µM in test [2]; over 100 µM in test [3]; 38 µM in test [4]; over 100 µM in test [5]; over 100 µM in test [6]. Also, the TGI in test [7], in [8] and in [10] was over 100 µM in each case.

Take `COC[C@@H](Cc1ccc(OC)c(OC)c1)[C@@H](COC)Cc1ccc(OC)c(OC)c1`: the TGI in test [2], in test [5], in test [6], in [7], in test [9] and in test [8] was over 100 µM in each case. In test [10], this compound registered a TGI of over 100 µM.

Usually GI50 stands for the concentration at which growth is held to half of that of the control. For the compound `CCC1(O)CC(OC2CC(N(C)C)C(OC3CC(O)C(OC4CCC(=O)C(C)O4)C(C)O3)C(C)O2)c2c(O)c3c(c(O)c2C1C(=O)OC)C(=O)c1cccc(O)c1C3=O` (configuration not stated), the TGI in [1] is 0.0098 µM; in test [2], 0.0667 µM and 0.0267 µM; in [3], 1.02 µM; in test [4], 0.101 µM; in test [6] it was 0.9 µM and 0.187 µM; in test [8], 0.392 µM and 0.211 µM. This compound also had a TGI in test [10] of 0.0292 µM. The GI50 in test [2] was 10.6 nM.
